Data taken from patent US9855270B2, “Methods and compositions for modulating estrogen receptor mutants” (priority 2014, dated 2018).
Changes are numbered by the printed parent chain. Like-named read-outs stand apart in the source and are kept apart here.

Columns and labels:
ER-α L536P = target: T1, ER-α L536P (Homo sapiens, UniProt P03372, L536P); details: Agonist Mode; for Efficacy (Emax): −E2, relative to vehicle treated wild-type ER-α
T1 sequence (P03372 1-595 L536P): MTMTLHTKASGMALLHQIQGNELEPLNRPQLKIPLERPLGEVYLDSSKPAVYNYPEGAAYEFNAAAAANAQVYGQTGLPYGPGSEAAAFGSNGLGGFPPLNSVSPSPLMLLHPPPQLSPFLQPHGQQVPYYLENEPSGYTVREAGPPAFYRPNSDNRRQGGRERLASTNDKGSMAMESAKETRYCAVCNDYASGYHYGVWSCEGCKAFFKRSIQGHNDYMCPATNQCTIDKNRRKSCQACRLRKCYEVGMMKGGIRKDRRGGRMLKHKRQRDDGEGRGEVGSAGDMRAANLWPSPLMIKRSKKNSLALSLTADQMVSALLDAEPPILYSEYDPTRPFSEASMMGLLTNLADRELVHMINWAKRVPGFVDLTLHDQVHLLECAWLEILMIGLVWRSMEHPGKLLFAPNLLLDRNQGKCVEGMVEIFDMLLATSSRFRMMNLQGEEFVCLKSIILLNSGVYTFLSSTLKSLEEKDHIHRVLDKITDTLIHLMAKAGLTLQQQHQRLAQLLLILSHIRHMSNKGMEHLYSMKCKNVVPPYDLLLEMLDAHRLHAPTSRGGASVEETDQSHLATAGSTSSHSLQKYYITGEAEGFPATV
Protocol: (§1) Cells were transiently transfected using
(§2) Triplicate transfections were performed using 180 ng 3×ERE-TK-Luc (reporter vector), 30 ng pRL-CMV (normalization vector), and 270 ng pCDNA ER-α (or ER-α mutation).
(§3) Following 24 hour incubation the medium was removed and the cells were lysed in 40 μL of lysis buffer (25 mM Tris Phosphate, 2 mM CDTA, 10% Glycerol, 0.5% Triton X-100, 2 mM DTT).

ER-α L536R = target: T2, ER-α L536R (Homo sapiens, UniProt P03372, L536R)
T2 sequence (P03372 1-595 L536R): T1 sequence (P03372 1-595 L536P) with P536R
Protocol: as §1, §2, §3

ER-α Y537N = target: T3, ER-α Y537N (Homo sapiens, UniProt P03372, Y537N)
T3 sequence (P03372 1-595 Y537N): T1 sequence (P03372 1-595 L536P) with P536L, Y537N
Protocol: as §1, §2, §3

ER-α E380Q = target: T4, ER-α E380Q (Homo sapiens, UniProt P03372, E380Q); details: Agonist Mode; for Efficacy (Emax): −E2, relative to vehicle treated wild-type ER-α
T4 sequence (P03372 1-595 E380Q): T1 sequence (P03372 1-595 L536P) with E380Q, P536L
Protocol: as §1, §2, §3

[1] = Agonist Mode, −E2, relative to vehicle treated wild-type ER-α
[2] = Antagonist Mode, +E2, relative to vehicle treated wild-type ER-α

CC1=C(c2cccc(O)c2)[C@H](c2ccc(OCCN3CC(CF)C3)cc2)Oc2ccc(O)cc21 [Compound 4-23, (S)-2-(4-(2-(3-(fluoromethyl)azetidin-1-yl)ethoxy)phenyl)-3-(3-hydroxyphenyl)-4-methyl-2H-chromen-6-ol]
Percent inhibition compared to vehicle (ER-α L536P; −E2): 68% | Efficacy (Emax) (ER-α L536P): 1.01 | Percent inhibition compared to vehicle (ER-α L536R; Agonist Mode, −E2): 80% | Efficacy (Emax) (ER-α L536R; [1]): 0.29 ± 0.22 | Percent inhibition compared to vehicle (ER-α L536R; Antagonist Mode, +E2): 94% | Efficacy (Emax) (ER-α L536R; [2]): 0.15 ± 0.07 | Percent inhibition compared to vehicle (ER-α Y537N; Agonist Mode, −E2): 92% | Efficacy (Emax) (ER-α Y537N; [1]): 0.32 ± 0.27 | Percent inhibition compared to vehicle (ER-α Y537N; Antagonist Mode, +E2): 96% | Efficacy (Emax) (ER-α Y537N; [2]): 0.16 ± 0.08 | Percent inhibition compared to vehicle (ER-α E380Q; −E2): 73% | Efficacy (Emax) (ER-α E380Q): 0.57

C[C@]12CC[C@@H]3c4ccc(O)cc4C[C@@H](CCCCCCCCC[S+]([O-])CCCC(F)(F)C(F)(F)F)[C@H]3[C@@H]1CC[C@@H]2O (stereo partly drawn) [Fulvestrant]
Efficacy (Emax) (ER-α L536P): 0.42 | Efficacy (Emax) (ER-α L536R; [1]): 0.32 ± 0.12 | Efficacy (Emax) (ER-α L536R; [2]): 0.30 ± 0.11 | Efficacy (Emax) (ER-α Y537N; [1]): 0.30 ± 0.18 | Efficacy (Emax) (ER-α Y537N; [2]): 0.20 ± 0.20 | Efficacy (Emax) (ER-α E380Q): 0.38
